Consider twelve compounds from ChEMBL document CHEMBL5606458, “ASAP - ZIKV NS2B-NS3 protease fluorescence single point” (2024).

Nonstructural protein 3 (Zika virus), sequence (A0A024AXB9 as listed by the source): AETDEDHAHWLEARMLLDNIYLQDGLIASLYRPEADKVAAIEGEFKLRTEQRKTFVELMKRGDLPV

The experiment addresses Nonstructural protein 3 (Zika virus) (UniProt A0A024AXB9). As to the kind of experiment: Functional biochemical assay to identify treatments for viral infectious disease that targets Zika NS2B-NS3 protease. Utilizing a direct enzyme activity measurement method, reading the fluorescence intensity is used to characterize the relative potency of inhibitors as % inhibition. Synthetic construct has been made based on Zika virus (strain PRVABC59) by Centre for Medicines Discovery, University of Oxford, and the assay has been performed by Stanford University.The protocol is publicly available: dx.doi.org/10.17504/protocols.io.4r3l29533v1y/v1. Conditions: Concentration 25.0 uM, Number of replicates 1.0.
Regarding `O=Cc1ccc(N2CCC(C(=O)O)CC2)cc1`, the inhibition is 66%.

In the case of `CN(C)c1ccc(C=C(C#N)C(N)=O)cc1`, the inhibition worked out at 50.7%.

`O=Cc1ccc(N2CCCCC2)cc1` displayed an inhibition of 49%.

`O=Cc1ccc(N2CCC(C(=O)O)CC2)o1` yielded an inhibition of 55.4%.

The compound `CC[C@H]1CO[C@H](C)CN1c1ccc(C=O)cn1` yielded an inhibition of 61.5%.

Compound `Cc1c(C=O)c2ccccn2c1C#N` gave an inhibition of 48.9%.

`Cc1nc(C=O)c2ccccn12`: the inhibition stood at 45%.

For the compound `Cc1cc(NS(=O)(=O)c2ccc(S(=O)(=O)F)cc2)c[nH]c1=O`, the inhibition amounted to 60.6%.

With `Nc1ccc2ccc(B(O)O)cc2c1`, the inhibition is 81%.

For `O=Cc1nc(-c2ccccc2Cl)n2ccccc12`, the inhibition amounted to 48.3%.

The compound `Cc1c(C=O)c2ccccn2c1C(=O)c1ccncc1` came in with an inhibition of 48.3%.

`O=Cc1ccc(N2CCCCCC2)cc1` yielded an inhibition of 46.5%.

The inhibition is the drop in the measured response relative to a control, in per cent. A high value points to a strong effect.
